Values quoted from earlier work in patent US20060014828A1 (priority 2004, published 2006).
Where a name gives a salt, the structure may show the parent alone.

| Solubility in alcohol | Solubility in ether | Structure (SMILES) | Solubility in water | Solubility in organic solvents such as ethanol, ether and chloroform |
| --- | --- | --- | --- | --- |
| slightly soluble | very slightly soluble | NNc1nncc2ccccc12 [Hydralazine hydrochloride] | soluble | – |
| – | – | O=[N+]([O-])O[C@H]1CO[C@H]2[C@@H]1OC[C@H]2O[N+](=O)[O-] [isosorbide dinitrate, 1,4,3,6-dianhydro-D-glucitol-2,5-dinitrate] | sparingly soluble | freely soluble |
